The values that follow come from the METLIN SMRT retention time set (Domingo-Almenara et al. 2019).

This data set can be described thus: gradient 5% acetonitrile 3 min, to 50% in 2 min, to 85% in 15 min, held 3 min, 100 µL/min. Conditions: column: Zorbax Extend-C18 2.1 x 50 mm; eluents: water / acetonitrile, 0.1% formic acid. The gist of the method: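 Values are retention times taken from adduct peaks that software picked and an analyst inspected. The pure standards were run as mixtures of ~100 molecules on HPLC linked to a quadrupole time-of-flight mass spectrometer, in positive and negative ionization mode. A Zorbax Extend-C18 column (2.1 × 50 mm, 1.8 μm) was used at 100 μL/min with water and acetonitrile, each including 0.1% formic acid.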
The compound `COC(=O)c1ccccc1NC(=O)C1(c2cccs2)CCOCC1` gave an RP-LC retention time of 1030 s.

The compound `CCC(=O)N1CCN(c2ccc(-n3c(=O)ccc4cnc5ccc(-c6cnc7ccccc7c6)cc5c43)cc2C(F)(F)F)CC1` came in with an RP-LC retention time of 861 s.

As for `Cc1ccc(N2CC(c3noc(-c4cccc(OC(F)(F)F)c4)n3)CC2=O)cc1` (stereo not drawn), the RP-LC retention time turned out to be 1160 s.

Turning to `COc1ccc(Cl)cc1NC(=O)c1cc(C)n2nc(C)cc2n1`, the RP-LC retention time is 1160 s.

For `CN1CCC(OC2CCN(C(=O)c3ccc(Br)cc3)CC2)CC1`, the RP-LC retention time was 615 s.

For the compound `O=C(NCc1cccnc1)C1CN(S(=O)(=O)c2cccnc2)CC12CCCCC2` (stereo not drawn), the RP-LC retention time is 595 s.

The compound `O=C1CC(c2ccccc2)N(S(=O)(=O)c2cccc3nsnc23)CCCCCN1` (stereo not drawn) gave an RP-LC retention time of 848 s.

In the case of `Oc1cccc(-c2nc3cnccn3c2Nc2ccccc2)c1`, the RP-LC retention time is 710 s.

For `Cc1cc2ccccc2n2c(SCC(=O)NCc3ccco3)nnc12`, the RP-LC retention time came to 663 s.

For `CC(C)C(=O)c1c(C(C)C)nn2ccccc12`, the RP-LC retention time is 1010 s.

`COc1cccc(NC(=O)C2CCCN(c3ncnc4oc(C)c(C)c34)C2)c1` (stereo not drawn) registered an RP-LC retention time of 891 s.

For `O=C(Cc1ccsc1)N1CCC(c2nncn2-c2ccccc2)CC1`, the RP-LC retention time was 689 s.

`CCCNC(=O)N1CCC(CCOc2ccncc2)CC1` registered an RP-LC retention time of 571 s.

Regarding `CCOc1ccc(NC(=O)N2CCC(c3nc(C(=O)N4CCOCC4)c(C)o3)CC2)cc1`, the RP-LC retention time is 704 s.

`COc1ccc(NC(=O)N2CCC(C(=O)NCc3csc(-c4ccccc4)n3)CC2)c(OC)c1` yielded an RP-LC retention time of 777 s.

In turn, `CCn1nc(C(=O)Nc2nc3c(SC)cccc3s2)cc1C` gave an RP-LC retention time of 994 s.

In turn, `Cc1cnc(C2CCC2)n1CC1CCN(S(=O)(=O)Cc2cccc(F)c2)C1` (stereo not drawn) returned an RP-LC retention time of 683 s.

For `CCCN1C(=O)COc2ccc(-c3noc(-c4ccc(CS(=O)(=O)c5ccccc5)cc4)n3)cc21`, the RP-LC retention time was determined as 1130 s.

Regarding `Cc1ccc(CNC(=O)c2nc3cccnc3n(C)c2=O)cc1`, the RP-LC retention time was 787 s.

`Cn1c(-c2ccccc2)nn(CCNS(=O)(=O)c2ccc(Cl)s2)c1=O` had an RP-LC retention time of 748 s.

Compound `COc1ccc(-c2nc3cc(C)ccn3c2NC(=O)c2cccc(C(F)(F)F)c2)cc1OC` displayed an RP-LC retention time of 729 s.

As for `CC(=O)Nc1ccc(CCc2nc3ccc(C(=O)NC(C)C)cc3[nH]2)cc1`, the RP-LC retention time is 574 s.

`O=C(Cc1ccccc1)Nc1c(C(=O)N2CCN(c3ccccn3)CC2)oc2ccccc12` gave an RP-LC retention time of 673 s.

For `O=C(NCc1nc(-c2ccccc2)no1)c1csc(-c2cnccn2)n1`, the RP-LC retention time amounted to 779 s.

`O=C(CN1CCCCC1c1nc(-c2cccc(F)c2)no1)Nc1ccccc1F` (stereo not drawn) yielded an RP-LC retention time of 1230 s.

In turn, `CCCCS(=O)(=O)N1C[C@@H](COC)[C@H](C(=O)NC)C1` had an RP-LC retention time of 626 s.

`C=CCNC(=O)C1CCCN(C(=O)Nc2ccc(NC(=O)Nc3ccc(C)c(C)c3)cc2)C1` (stereo not drawn) yielded an RP-LC retention time of 766 s.

Regarding `O=S(=O)(c1ccc2c(c1)CCC2)N1CCCn2nc(-c3cccs3)cc2C1`, the RP-LC retention time was 1060 s.

Turning to `Cn1ncc2c(N3CCCCC3)nc(C(=O)N3CCN(c4ccc(Cl)cc4)CC3)nc21`, the RP-LC retention time is 1020 s.

In the case of `CCOC(=O)c1ccccc1NC(=O)N(Cc1cccs1)C1CCN(CC)CC1`, the RP-LC retention time was 756 s.

Compound `CCCn1c(=O)sc2cc(S(=O)(=O)N3CCC(C(=O)Nc4cc(C)ccn4)CC3)ccc21` came in with an RP-LC retention time of 844 s.

In turn, `O=C(Nc1nc2ccccc2[nH]1)c1cccc(Cl)c1` yielded an RP-LC retention time of 703 s.

Compound `O=C(c1ccc(F)c(Cl)c1)N1CCN(c2cc(-c3cccs3)[nH]n2)CC1` displayed an RP-LC retention time of 800 s.
